Results: patent US20230257396A1, “MACROCYCLES AND THEIR USE” (BLOSSOMHILL THERAPEUTICS, INC., priority 2020, published 2023)
Numbering of substitutions follows the chain as printed.

Key:
Experiment in all cases: KINOMEscan kinase binding assay (Eurofins/DiscoveRx), % Ctrl
Conditions in all cases: 1 μM
kinases [1] = biological target: T1, kinases (Homo sapiens, UniProt P00519, T315I)
T1 construct: purchased Eurofins/DiscoveRx; host or cells: E. coli BL21-derived host (T7 phage display) for most kinases; HEK-293 for the rest
Summary of the method: (§1)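 Read-out is qPCR of kinase eluted from ligand-coated streptavidin beads after 1 h room-temperature competition with test compound. Values are % Ctrl at the tested concentration, lower meaning tighter binding.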

kinases [2] = biological target: T2, kinases (Homo sapiens, UniProt P36888)
T2 construct: purchased Eurofins/DiscoveRx; host or cells: E. coli BL21-derived host (T7 phage display) for most kinases; HEK-293 for the rest
T2 sequence (P36888 27-993): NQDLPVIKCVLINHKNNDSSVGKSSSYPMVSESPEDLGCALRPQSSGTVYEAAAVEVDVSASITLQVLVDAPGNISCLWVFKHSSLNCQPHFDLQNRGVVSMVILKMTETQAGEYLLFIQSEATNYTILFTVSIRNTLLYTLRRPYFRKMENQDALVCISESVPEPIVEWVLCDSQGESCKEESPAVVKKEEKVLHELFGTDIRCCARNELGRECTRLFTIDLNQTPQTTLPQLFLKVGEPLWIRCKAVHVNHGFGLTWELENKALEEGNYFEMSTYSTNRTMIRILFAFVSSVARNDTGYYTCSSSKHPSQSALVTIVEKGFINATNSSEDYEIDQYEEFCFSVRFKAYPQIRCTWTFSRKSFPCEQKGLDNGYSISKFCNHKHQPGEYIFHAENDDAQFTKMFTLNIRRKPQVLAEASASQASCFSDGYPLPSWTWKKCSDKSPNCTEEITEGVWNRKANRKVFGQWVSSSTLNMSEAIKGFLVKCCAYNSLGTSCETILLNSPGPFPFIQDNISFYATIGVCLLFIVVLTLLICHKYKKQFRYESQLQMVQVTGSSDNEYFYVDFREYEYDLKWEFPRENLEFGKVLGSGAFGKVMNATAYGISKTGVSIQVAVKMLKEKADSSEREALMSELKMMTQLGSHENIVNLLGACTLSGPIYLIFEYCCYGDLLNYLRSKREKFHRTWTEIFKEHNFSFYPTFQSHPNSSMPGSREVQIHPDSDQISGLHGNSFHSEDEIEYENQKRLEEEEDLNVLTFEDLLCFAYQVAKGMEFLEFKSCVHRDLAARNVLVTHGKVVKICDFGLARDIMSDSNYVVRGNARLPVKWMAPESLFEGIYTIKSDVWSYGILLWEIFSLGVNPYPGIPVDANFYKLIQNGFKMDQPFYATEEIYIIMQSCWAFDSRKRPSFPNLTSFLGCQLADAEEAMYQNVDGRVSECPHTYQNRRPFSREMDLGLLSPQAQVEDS
Summary of the method: as §1

kinases [3] = biological target: T3, kinases (Homo sapiens, UniProt P36888, K663Q)
T3 construct: purchased Eurofins/DiscoveRx; host or cells: E. coli BL21-derived host (T7 phage display) for most kinases; HEK-293 for the rest
T3 sequence (P36888 27-993 K663Q): T2 sequence (P36888 27-993) with K637Q
Summary of the method: as §1

kinases [4] = biological target: T4, kinases (Homo sapiens, UniProt P10721, A829P)
T4 construct: purchased Eurofins/DiscoveRx; host or cells: E. coli BL21-derived host (T7 phage display) for most kinases; HEK-293 for the rest
Summary of the method: as §1

[5] = target ABL1(T315I)-nonphosphorylated
[6] = target ABL1(T315I)-phosphorylated

T4 sequence (P10721 26-976 A829P): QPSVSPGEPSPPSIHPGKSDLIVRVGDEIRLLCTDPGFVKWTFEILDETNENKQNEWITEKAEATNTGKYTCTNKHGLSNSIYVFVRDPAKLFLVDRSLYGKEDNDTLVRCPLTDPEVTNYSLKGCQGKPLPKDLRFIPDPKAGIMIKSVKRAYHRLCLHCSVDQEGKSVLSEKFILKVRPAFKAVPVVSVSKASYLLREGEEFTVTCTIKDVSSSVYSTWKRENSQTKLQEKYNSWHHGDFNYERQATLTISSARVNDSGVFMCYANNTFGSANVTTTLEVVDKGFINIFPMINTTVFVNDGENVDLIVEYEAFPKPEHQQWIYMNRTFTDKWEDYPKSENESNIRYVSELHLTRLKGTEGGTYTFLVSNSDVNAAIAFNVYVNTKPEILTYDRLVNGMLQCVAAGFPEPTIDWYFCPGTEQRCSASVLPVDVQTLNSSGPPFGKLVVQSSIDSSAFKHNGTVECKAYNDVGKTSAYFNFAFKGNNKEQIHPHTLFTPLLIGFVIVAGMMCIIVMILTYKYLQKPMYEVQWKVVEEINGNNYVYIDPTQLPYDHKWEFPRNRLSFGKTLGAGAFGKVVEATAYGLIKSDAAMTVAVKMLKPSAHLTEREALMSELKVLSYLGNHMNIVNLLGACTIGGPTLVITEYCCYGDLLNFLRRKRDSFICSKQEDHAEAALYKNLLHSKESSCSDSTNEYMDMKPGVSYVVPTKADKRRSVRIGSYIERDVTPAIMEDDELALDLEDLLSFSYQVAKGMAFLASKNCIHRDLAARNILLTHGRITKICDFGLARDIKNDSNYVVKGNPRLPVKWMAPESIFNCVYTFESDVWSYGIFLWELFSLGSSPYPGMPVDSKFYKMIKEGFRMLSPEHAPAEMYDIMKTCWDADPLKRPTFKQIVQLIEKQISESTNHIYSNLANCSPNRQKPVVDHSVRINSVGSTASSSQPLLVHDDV

Row | % Ctrl, ABL1(T315I)-nonphosphorylated (kinases [1]; ABL1(T315I)-nonphosphorylated) [% Ctrl] | % Ctrl, ABL1(T315I)-phosphorylated (kinases [1]; ABL1(T315I)-phosphorylated) [% Ctrl] | % Ctrl, FLT3 (kinases [2]; FLT3) [% Ctrl] | % Ctrl, FLT3-autoinhibited (kinases [2]; FLT3-autoinhibited) [% Ctrl] | % Ctrl, FLT3(K663Q) (kinases [3]; FLT3(K663Q)) [% Ctrl] | % Ctrl, KIT(A829P) (kinases [4]; KIT(A829P)) [% Ctrl] | % Ctrl, ABL1(T315I)-nonphosphorylated (kinases [1]; [5]) [% Ctrl] | % Ctrl, ABL1(T315I)-phosphorylated (kinases [1]; [6]) [% Ctrl] | % Ctrl, FLT3-autoinhibited (kinases [2]; target FLT3-autoinhibited) [% Ctrl] | % Ctrl, FLT3 (kinases [2]; target FLT3) [% Ctrl] | % Ctrl, FLT3(K663Q) (kinases [3]; target FLT3(K663Q)) [% Ctrl] | % Ctrl, KIT(A829P) (kinases [4]; target KIT(A829P)) [% Ctrl] | SMILES
1 | 77 | 37 | 36 | 97 | 64 | 64 | – | – | – | – | – | – | Cc1cc2c([nH]1)/C=C1\C(=O)Nc3cc(Cl)c(cc31)OCCO[C@@H](C(=O)N[C@@H]1CCNC1)CN(C)C2=O [Ex. 136, [7R,16a(17)Z]-19-chloro-2,5-dimethyl-4,16-dioxo-N-[(3R)-pyrrolidin-3-yl]-4,5,6,7,9,10,15,16-octahydro-1H-12,14-(ethanediylidene)dipyrrolo[3,2-i:3′,4′-l][1,4,7]dioxazacyclopentadecine-7-carboxamide]
2 | – | – | – | – | – | – | 93 | 83 | 82 | 71 | 71 | 96 | Cc1nn(C)c2c1-c1ccc3c(c1)/C(=C/c1[nH]ccc1C(=O)N(C)CCCO2)C(=O)N3 [Ex. 150, [3a(4)Z]-9,14,16-trimethyl-10,11,13,14-tetrahydro-2H-1,17-(ethanediylidene)pyrazolo[4,3-m]dipyrrolo[3,2-f:3′,4′-i][1,4]oxazacyclopentadecine-3,8(5H,9H)-dione]
3 | – | – | – | – | – | – | 87 | 76 | 76 | 77 | 95 | 100 | Cc1cc2c([nH]1)/C=C1\C(=O)Nc3cc(Cl)c(cc31)OCCO[C@@H](C(=O)N1CCN(C)CC1)CN(C)C2=O [Ex. 138, [7R,16a(17)Z]-19-chloro-2,5-dimethyl-7-(4-methylpipearazine-1-carbonyl)-6,7,9,10-tetrahydro-1H-12,14-(ethanediylidene)dipyrrolo[3,2-i:3′,4′-l][1,4,7]dioxazacyclopentadecine-4,16(5H,15H)-dione]
4 | 81 | 69 | 55 | 77 | 69 | 75 | – | – | – | – | – | – | Cc1cc2c([nH]1)/C=C1\C(=O)Nc3cc(Cl)c(cc31)OCCO[C@@H](C(=O)N(C)C)CN(C)C2=O [Ex. 137, [7R,16a(17)Z]-19-chloro-N,N,2,5-tetramethyl-4,16-dioxo-4,5,6,7,9,10,15,16-octahydro-1H-12,14-(ethanediylidene)dipyrrolo[3,2-i:3′,4′-l][1,4,7]dioxazacyclopentadecine-7-carboxamide]
5 | 16 | 19 | 5.5 | 50 | 17 | 45 | – | – | – | – | – | – | Cc1cc2c([nH]1)/C=C1\C(=O)Nc3ccc(cc31)-c1ccnn1CCOCCN(C)C2=O [Ex. 41, [19a(20)Z]-2,5-dimethyl-6,7,9,10-tetrahydro-1H-15,17-(ethanediylidene)pyrazolo[1,5-d]dipyrrolo[3,4-h:2′,3′-k][1,4,14]oxadiazacyclohexadecine-4,19(5H,18H)-dione]
6 | 95 | 26 | 100 | 85 | 100 | 99 | – | – | – | – | – | – | Cc1cc2c([nH]1)/C=C1\C(=O)Nc3ccc(cc31)-c1ccnn1CCOCCNC2=O [Ex.39, [19a(20)Z]-2-methyl-6,7,9,10-tetrahydro-1H-15,17-(ethanediylidene)pyrazolo[1,5-d]dipyrrolo[3,4-h:2′,3′-k][1,4,14]oxadiazacyclohexadecine-4,19(5H,18H)-dione]
